{"source": "patent US20010041743A1", "about": "“Use of cyclopentenone derivatives for bone and periodontal regeneration” (priority 2000, published 2001)", "key": {"[1]": {"system": "transcortical defects in rat femurs", "assay": "Titanium enclosure model of bone regeneration (histomorphometry of cortical defect)", "format": "in vivo", "settings": "for percentage of new bone formation in cortical defect area (bone growth): rat femur, control value 40%", "experimental": "(§1) In one study, bone regeneration and gene expression was assayed using a titanium enclosure model, as described in Example 1 (FIG. 1). Briefly, transcortical defects were created surgically in rat femurs. A collagen sponge, loaded with a varying concentration of Δ^12PGJ2 was applied to each defect. The collagen sponge was secured by placement of the titanium enclosure, which served as a rigid and fixed geometry cell exclusion barrier. Animals were sacrificed at 10 days and bone tissue sections were prepared for immunohistology to quantify growth factor expression. Tissue sections from treated animals were also analyzed morphometrically to assess de novo bone formation of the defect areas.\nTitanium enclosures were prepared by trimming and carving 0.1 mm thickness titanium plate to half cylindrical shape which had 8×1.5×2 mm in length, height, and width respectively. Both ends of the enclosures were sealed with surgical grade, self curing acrylic resin to form a closed half cylinder which is open only in the sagittal direction. The enclosures were then washed in an ultrasonic cleaning machine and autoclaved to sterilize and to create a titanium oxide surface prior to use.\nTwenty-eight male Wistar rats, aged 8 weeks and weighing 350-400 g were randomly separated into 4 groups that received varying doses of Δ^12PGJ2. Two rats were housed in each cage with free access to normal laboratory diet and water ad libitum. After 7 days of acclimatization, the animals were initially anesthetized intramuscularly with Sodium pentobarbital (Nembutal sodium solution, Abbott Laboratories, Chicago, Ill.) at a dosage of 75 mg/kg of body weight. The area of intended surgery was shaved and disinfected using 90% ethyl alcohol. After pupillary reflex was inhibited, a 3-cm incision was made through skin and muscle parallel to the long axis over the dorsal aspect of both left and right femoral bone. The periosteum was incised and removed from the surface of the bone, creating an exposed area of sufficient size to place the open face of the cylindrical enclosure directly on the bone surface. Subsequently, a 5×1.5 mm transcortical defect was made through the cortical bone into the bone marrow at the midshaft region using round and cylindrical steel burs and a low speed micromotor machine. A sufficiently sterile 0.9% saline solution was used as a coolant to avoid heat-induced necrosis of surrounding bone. The femoral bone on one side of the animal was randomly chosen for treatment with Δ^12PGJ2, and the contralateral side was used as a control. FIG. 1 depicts a schematic diagram of the titanium enclosure model.\n(§2) Δ^12PGJ2 (Cayman Chemical, Ann Arbor, Mich.) was diluted in 0.9% NaCl, pH 7.2, to the final concentration of 1×10^−3, 1×10^−5, 1×10^−7, and 1×10^−9 M. An absorbable collagen sponge (Colla-Tec Inc. Plainsboro, N.J.) 5×1.5 mm dimensions was used as a carrier. 10 μl of each Δ^12PGJ2 solution were loaded into the collagen carrier and then the carrier was placed inside the half cylindrical titanium enclosure. This provided a dosage of 3.0 μg, 30 ng, 0.3 ng, and 3 pg Δ^12PGJ2 in each of five standardized defects. The remaining volume inside the enclosure was filled with blood collected from the defect. The enclosure was inverted, placed over the defect, and stabilized by circumosseous wiring around the femoral bone using #010 orthodontic wire. […] The animals were monitored every day after surgery for indication of post-operative reactions. […]"}, "PDGF-B": {"system": "PDGF-B", "assay": "Immunohistochemistry of PDGF-B expression in the titanium enclosure model", "format": "in vivo, rat", "settings": "for PDGF-B expression in the area of the defect: 10 days", "experimental": "as §1, §2\nThe area and average intensity of positive immunostaining were measured using a microscope connected to a computerized video digital system (JAVA video analysis software, Jandel Scientific, Corte Madera, Calif.) at a magnification of 100×. Three to five sections were analyzed for each femur and the data from all sections were pooled to reflect a mean value for each bone defect. […]"}, "BMP-6": {"system": "BMP-6", "assay": "Immunohistochemistry of BMP-6 expression in the titanium enclosure model", "format": "in vivo, rat", "settings": "no concentration stated", "experimental": "as §1\n(§3) Δ^12PGJ2 (Cayman Chemical, Ann Arbor, Mich.) was diluted in 0.9% NaCl, pH 7.2, to the final concentration of 1×10^−3, 1×10^−5, 1×10^−7, and 1×10^−9 M. An absorbable collagen sponge (Colla-Tec Inc. Plainsboro, N.J.) 5×1.5 mm dimensions was used as a carrier. […] The animals were monitored every day after surgery for indication of post-operative reactions. […]\n(§4) The area and average intensity of positive immunostaining were measured using a microscope connected to a computerized video digital system (JAVA video analysis software, Jandel Scientific, Corte Madera, Calif.) at a magnification of 100×. […]"}, "PDGF-A": {"system": "PDGF-A", "assay": "Immunohistochemistry of PDGF-A expression in the titanium enclosure model", "format": "in vivo, rat", "settings": "no concentration stated", "experimental": "as §1, §3, §4"}, "BMP-2": {"system": "BMP-2", "assay": "Immunohistochemistry of BMP-2 expression in the titanium enclosure model", "format": "in vivo, rat", "settings": "no concentration stated", "experimental": "as §1, §3, §4"}, "[2]": {"system": "titanium implants placed in the rat femur", "assay": "Titanium implant model of bone regeneration (bone height and width around implant)", "format": "in vivo", "settings": "for bone growth (height and width) around implant: versus control vehicle", "experimental": "In a second study, titanium implants were placed in the rat femurto mimic human dental implant placement, as described in Example 2. Bone healing and regeneration around the implants was assessed following treatment with implants loaded with Δ^12PGJ2.\nSix male Wistar rats were anesthetized as described in Example 1 for the placement of 4 titanium implants in each animal. Implants were fabricated from surgical grade titanium 1.5 mm in diameter, 2.5 mm in length with machined threads, cleaned bysonication and autoclaved prior to use. Implant sites were prepared with cooling using a dental high speed hand piece. One test and one control implant site were prepared for placement of 5 μl of test or control solution, followed by implant placement. Control implants comprised vehicle only (10% carboxymethylcellulose in normal saline). For test sites, 10^−3M or 10^−5M Δ^12PGJ2 was applied to the site following placement of the implant. Animals were monitored for 3 or 8 weeks following implantation.\nFemur bones were collected and fixed in 4% paraformaldehyde, 0.1 M phosphate buffer. Samples were cleared through sequential washings of graded alcohol followed by xylene. Bones were embedded in methacrylate and sectioned with a low speed diamond saw and stained with Toluidine Blue. Two different quantitative measurements were derived from each implant to measure the amount of bone regenerated around each implant. These measurements represent the bone height from the endosteal surface to the most apical bone contact area of the implant and the mean width of that same bone calculated using three measurement references, including the endosteal surface (ES), ES +130 microns, and ES +260 microns."}, "[3]": {"settings": "treated versus control injuries, 10^−3M or 10^−5M applied to site"}}, "note": "“Also recorded” adds a separate entry of the source."}
{"smiles": "CCCCCC(O)CC=C1C(=O)C=CC1C/C=C\\CCCC(=O)O", "note": "(stereo not drawn) [Δ^12PGJ2, Δ^12-13,14-dihydro-9-deoxy-Δ^9-prostaglandin D2]", "values": [{"measurement": "bone volume following administration (FIG. 2)", "setting": "[1]", "result": "increase in bone volume"}, {"measurement": "percentage of new bone formation in cortical defect area (bone growth)", "setting": "[1]; 30 ng dose in collagen sponge, 10 days", "result": 53, "unit": "% volume"}, {"measurement": "increase in total bone area following treatment", "setting": "[1]; 3.0 μg and 30 ng doses versus control, 10 days", "result": "~33", "unit": "%"}, {"measurement": "percentage of new bone formation in cortical defect area (bone growth)", "setting": "[1]; 3.0 μg dose in collagen sponge, 10 days", "result": 54, "unit": "% volume"}, {"measurement": "percentage of new bone formation, dose dependence", "setting": "[1]; doses 3 pg to 3.0 μg, 10 days", "result": "increased in a dose-dependent manner"}, {"measurement": "PDGF-B expression in the area of the defect", "setting": "PDGF-B; 10^−3M", "result": "significant increase"}, {"measurement": "PDGF-B expression in the area of the defect", "setting": "PDGF-B; 10^−5M", "result": "significant increase"}, {"measurement": "PDGF-B expression / induction (general statement)", "setting": "PDGF-B; no concentration stated", "result": "increase in PDGF-B expression; also recorded: potent and dose-dependent inducer"}, {"measurement": "BMP-6 expression / induction", "setting": "BMP-6", "result": "increase in BMP-6 expression; also recorded: potent and dose-dependent inducer"}, {"measurement": "PDGF-A induction", "setting": "PDGF-A", "result": "potent and dose-dependent inducer"}, {"measurement": "BMP-2 induction", "setting": "BMP-2", "result": "potent and dose-dependent inducer"}, {"measurement": "bone growth (height and width) around implant", "setting": "[2]; 3 weeks after administration", "result": "Significantly increased bone growth"}, {"measurement": "bone growth (height and width) around implant", "setting": "[2]; 8 weeks after administration", "result": "Significantly increased bone growth"}, {"measurement": "bone height around implant", "setting": "[2]; [3]", "result": "significantly increased"}, {"measurement": "bone width around implant", "setting": "[2]; [3]", "result": "significantly increased"}]}
